Measured values: US11819492B2, “Natural product derivatives for inhibiting cellular necroptosis, ferroptosis and oxytosis” (Institut National de la Sante et de la Recherche Medicale …, priority 2016, dated 2023)

Legend:
[1] = test system: Porcine LLC-PK1 cells (kidney proximal tubule cell line); test: Cold-induced cell death (cold storage), MTS viability assay; type: cell-based; conditions: 0.01-50.00 μM, 24 hours at 4° C., FIGS. 16a, 16b
Method: At it was previously shown (Ahlenstiel et al. Transplantation […], 81(2), 231-239), cold storage induces a cell-death process. Porcine LLC-PK1 cells (kidney proximal tubule cell line) were stored at approximately 4° C. during 24 hours with or without the tested molecules. […] Cells were then incubated at 37° C., 5% CO2 before performing MTS viability assay. Cell viability was monitored using CellTiter 96® AQueous Non-Radioactive Cell Proliferation Assay (Promega, Fitchburg, WI, USA), based on the water-soluble tetrazolium compound MTS (3-[4,5-dimethylthiazol-2-yl]-5-[3-carboxymethoxy-phenyl]-2-[4-sulfophenyl]-2H-tetrazolium, inner salt) according to the manufacturers instructions.

[2] = test system: rat embryonic myoblastic H9C2 cells; test: H2O2-induced necrosis, LDH release assay; type: cell-based; conditions: 10 μM, 2 hours pretreatment, 800 μM H2O2 for 24 hours, FIG. 17
Method: The rat embryonic myoblastic H9C2 cells were cultured at 10,000 cells/well in 96-well-plates for 24 hours at 37° C./5% CO2. […] LB corresponds to cells treated with a lysis buffer (100% of cell death). Cell cytotoxicity was determined by a colorimetric assay quantitatively measuring lactate dehydrogenase (LDH) released […].

[3] = test system: Human retinal pigment epithelial cell line, ARPE-19; conditions: 200 μM, Hanus et al. 2016; cited from earlier work

SMILES: CN1C(=O)NC(Cc2c[nH]c3c(Cl)cccc23)C1=O (stereo not drawn) [Nec-1s, Necrostatin-1s, reference compound]
- protection from death induced by cold storage [1]: inactive
- protection from death induced by H2O2 (LDH release) [2]: less effective

SMILES: CN1C(=O)C(Cc2c[nH]c3ccccc23)NC1=S (stereo not drawn) [necrostatin-1]
- inhibition of NaIO3-induced necroptosis in retinal pigment epithelial cell line [3]: inhibited
